Results from patent US20080280879A1, “SUBSTITUTED HETEROCYCLIC DERIVATIVES AND THEIR PHARMACEUTICAL USE AND COMPOSITIONS” (priority 2007, published 2008).
Converted amounts (≈) assume the structure as drawn.

Experiments:
Assay type in all cases: cell-based, Staphylococcus aureus
[1] = system: Staph aureus 1146; assay: MIC, microtiter broth dilution (CLSI M7-A7), Assay 1, Table 12 column B, no serum; settings: for MIC: Staphylococcus aureus, 1146, Staph aureus 1146, Assay 1, no serum; for MIC, column B: Staph aureus 1146, Assay 1, no serum
Summary of the method: (§1)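 Testing followed the CLSI M7-A7 dilution standard in microtiter trays, with serum conditions using Mueller-Hinton Broth plus 50% pooled inactivated human serum. Values are the lowest concentrations with no macroscopically visible growth.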

[2] = system: Staph aureus 2812; assay: MIC, microtiter broth dilution (CLSI M7-A7), Assay 1, Table 12 column E, no serum; settings: for MIC: Staphylococcus aureus, 2812, Staph aureus 2812, Assay 1, no serum; for MIC, column E: Staph aureus 2812, Assay 1, no serum
Summary of the method: as §1

[3] = system: Staph aureus 1146; assay: MIC in Mueller-Hinton Broth with 50% pooled inactivated human serum, Assay 1, Table 12; settings: for MIC: Staphylococcus aureus, 1146, Staph aureus 1146, Assay 1, 50% human serum, read-out: MIC, column C; for MIC, column C: Staph aureus 1146, Assay 1, 50% human serum
Summary of the method: as §1

[4] = system: Staph aureus 1095 MRSA; assay: MIC, microtiter broth dilution (CLSI M7-A7), Assay 1, Table 12 column A, no serum; settings: Assay 1, no serum; for MIC: Staphylococcus aureus, MRSA
Summary of the method: as §1

[5] = system: Staph aureus 2811; assay: MIC, microtiter broth dilution (CLSI M7-A7), Assay 1, Table 12 column D, no serum; settings: for MIC: Staphylococcus aureus, 2811, Staph aureus 2811, Assay 1, no serum; for MIC, column D: Staph aureus 2811, Assay 1, no serum
Summary of the method: as §1

Row | Compound | MIC [1] [µg/mL] | MIC [2] [µg/mL] | MIC [3] [µg/mL] | MIC [4] [µg/mL] | MIC [5] [µg/mL] | MIC, column B [1] | MIC, column E [2] | MIC, column C [3] [µg/mL] | MIC, column A [4] [µg/mL] | MIC, column D [5]
1 | COc1ccc2nccc(C(O)CC[C@@H]3CCN(C4CC(c5c(F)cccc5F)C4)C[C@@H]3C(=O)O)c2c1 (single isomer, unassigned) [Example 27] | ≤ 0.125 | ≤ 0.0625 | 0.353 (≈ 0.692 µM) | ≤ 0.0625 | ≤ 0.0625 | – | – | – | – | –
2 | COc1ccc2nccc([C@@H](O)CC[C@@H]3CCN(C4CC(c5ccc(C(F)(F)F)cc5F)C4)C[C@@H]3C(=O)O)c2c1 (stereo partly drawn) [Example 194, (3R,4R)-1-{3-[2-fluoro-4-(trifluoromethyl)phenyl]cyclobutyl}-4-[(3S)-3-hydroxy-3-(6-methoxyquinolin-4-yl)propyl]piperidine-3-carboxylic acid] | 2 (≈ 3.57 µM) | 2 (≈ 3.57 µM) | > 64 | 4 (≈ 7.14 µM) | 2 (≈ 3.57 µM) | – | – | – | – | –
3 | COc1ccc2ncc(Cl)c(CCNC3CCN(C4CC(c5ccccc5)C4)C(C(=O)O)C3)c2c1 (centres unmarked) [Example 101, (2,4)-4-{[2-(3-chloro-6-methoxyquinolin-4-yl)ethyl]amino}-1-(3-phenylcyclobutyl)piperidine-2-carboxylic acid] | – | – | – | – | – | 0.125 µg/mL (≈ 0.253 µM) | <=.0625 μg/ml | 2 (≈ 4.05 µM) | 0.125 (≈ 0.253 µM) | <=.0625 μg/ml
4 | COc1ccc2nccc([C@@H](O)CC[C@@H]3CCN(C4CC(c5ccc(F)cc5F)C4)C[C@@H]3C(=O)O)c2c1 (stereo partly drawn) [Example 37, (3R,4R)-1-[3-(2,4-difluorophenyl)cyclobutyl]-4-[(3S)-3-hydroxy-3-(6-methoxyquinolin-4-yl)propyl] piperidine-3-carboxylic acid] | ≤ 0.0625 | 0.25 (≈ 0.49 µM) | 1 (≈ 1.96 µM) | 0.25 (≈ 0.49 µM) | ≤ 0.0625 | – | – | – | – | –
5 | COc1ccc2nccc(C(O)CC[C@@H]3CCN(C4CC(C5CCOCC5)C4)C[C@@H]3C(=O)O)c2c1 (stereo partly drawn) [Example 50, (3R,4R)-4-[3-hydroxy-3-(6-methoxyquinolin-4-yl)propyl]-1-[3-(tetrahydro-2H-pyran-4-yl)cyclobutyl] piperidine-3-carboxylic acid] | 32 (≈ 66.3 µM) | 64 (≈ 133 µM) | 32 (≈ 66.3 µM) | 32 (≈ 66.3 µM) | 64 (≈ 133 µM) | – | – | – | – | –
6 | COc1ccc2ncc(Cl)c(C(O)CC[C@@H]3CCN(C4CC(c5c(F)cccc5F)C4)C[C@@H]3C(=O)O)c2c1 (stereo partly drawn) [Example 188, (3R,4R)-4-[3-(3-chloro-6-methoxyquinolin-4-yl)-3-hydroxypropyl]-1-[3-(2,6-difluorophenyl)cyclobutyl]piperidine-3-carboxylic acid] | < 0.0625 | < 0.0625 | – | < 0.0625 | < 0.0625 | – | – | 0.500 (≈ 0.917 µM) | – | –
7 | COc1ccc2ncc(F)c([C@@H](O)CC[C@@H]3CCN(C4CC(=O)N(c5ccccc5)C4)C[C@@H]3C(=O)O)c2c1 (some centres unmarked) [Example 227] | 2 (≈ 3.83 µM) | 8 (≈ 15.3 µM) | 64 (≈ 123 µM) | 8 (≈ 15.3 µM) | 2 (≈ 3.83 µM) | – | – | – | – | –
8 | COC(=O)[C@H]1CN(C2CC(c3cc(C)no3)C2)CC[C@H]1CCC(O)c1ccnc2ccc(OC)cc12 (stereo partly drawn) [Example 105, methyl (3R,4R)-4-[3-hydroxy-3-(6-methoxyquinolin-4-yl)propyl]-1-[3-(3-methylisoxazol-5-yl)cyclobutyl]piperidine-3-carboxylate] | 2 (≈ 4.05 µM) | 2 (≈ 4.05 µM) | > 64 | 1 (≈ 2.03 µM) | 2 (≈ 4.05 µM) | – | – | – | – | –
9 | COc1ccc2nccc(C(O)CC[C@@H]3CCN(C4CCC(c5ccc(Cl)cc5)C4)C[C@@H]3C(=O)O)c2c1 (stereo partly drawn) [Example 97, (3R,4R)-1-[3-(4-chlorophenyl)cyclopentyl]-4-[3-hydroxy-3-(6-methoxyquinolin-4-yl)propyl]piperidine-3-carboxylic acid] | 2 (≈ 3.82 µM) | 8 (≈ 15.3 µM) | > 64 | 32 (≈ 61.2 µM) | 8 (≈ 15.3 µM) | – | – | – | – | –
10 | COc1ccc2ncc(F)c(CCCC3(C(=O)O)CCN(C4CC(c5ccccc5)C4)CC3)c2n1 (centres unmarked) [Example 106, 4-(3-(3-fluoro-6-methoxy-1,5-naphthyridin-4-yl)propyl)-1-(3-phenylcyclobutyl)piperidine-4-carboxylic acid] | ≤ 0.0625 | ≤ 0.0625 | 32 (≈ 67 µM) | ≤ 0.0625 | ≤ 0.0625 | – | – | – | – | –
11 | COc1ccc2ncc(F)c(C(O)CC[C@@H]3CCN(C4CC(c5c(F)cccc5F)C4)C[C@@H]3C(=O)O)c2n1 (stereo partly drawn) [Example 189, (3R,4R)-1-[3-(2,6-difluorophenyl)cyclobutyl]-4-[3-(3-fluoro-6-methoxy-1,5-naphthyridin-4-yl)-3-hydroxypropyl]piperidine-3-carboxylic acid] | – | – | – | – | – | <0.0625 µg/mL | <0.0625 µg/mL | 0.125 (≈ 0.236 µM) | <0.0625 | <0.0625 µg/mL
12 | COc1ccc2nccc(C(O)CC[C@@H]3CCN(C4CN(C5CCOCC5)C4)C[C@@H]3C(=O)O)c2c1 (stereo partly drawn) [Example 128, (3R,4R)-4-[3-hydroxy-3-(6-methoxyquinolin-4-yl)propyl]-1-[1-(tetrahydro-2H-pyran-4-yl)azetidin-3-yl] piperidine-3-carboxylic acid] | > 64 | > 64 | > 64 | > 64 | > 64 | – | – | – | – | –
13 | COc1ccc2nccc([C@@H](O)CC[C@@H]3CCN(C4CC(c5c(F)cccc5F)C4C)C[C@@H]3C(=O)O)c2c1 (stereo partly drawn) [Example 67, (3R,4R)-1-[(2,3)-3-(2,6-difluorophenyl)-2-methylcyclobutyl]-4-[(3S)-3-hydroxy-3-(6-methoxyquinolin-4-yl)propyl]piperidine-3-carboxylic acid] | – | – | – | – | – | <=.0625 μg/ml | 0.125 µg/mL (≈ 0.238 µM) | 2 (≈ 3.81 µM) | 0.125 (≈ 0.238 µM) | <=.0625 μg/ml
14 | COc1ccc2ncc(Cl)c(CCCC3(C(=O)O)CCN(C4CC(c5cc(F)ccc5F)C4)C3)c2c1 (centres unmarked) [Example 207, 3-[3-(3-chloro-6-methoxyquinolin-4-yl)propyl]-1-[3-(2,5-difluorophenyl)cyclobutyl] pyrrolidine-3-carboxylic acid] | < 0.0625 | < 0.0625 | 64 (≈ 124 µM) | < 0.0625 | < 0.0625 | – | – | – | – | –
15 | COc1ccc2nccc([C@H](O)CC[C@@H]3CCN(C4CC(C5CCCC5)C4)C[C@@H]3C(=O)O)c2c1 (stereo partly drawn) [Example 46, (3R,4R)-1-(3-cyclopentylcyclobutyl)-4-[(3R)-3-hydroxy-3-(6-methoxyquinolin-4-yl)propyl]piperidine-3-carboxylic acid] | 1 (≈ 2.14 µM) | 2 (≈ 4.29 µM) | 8 (≈ 17.1 µM) | 1 (≈ 2.14 µM) | 1 (≈ 2.14 µM) | – | – | – | – | –
16 | COc1ccc2nccc(C(O)CC[C@@H]3CCN(C4CC(C)(c5ccccc5)C4)C[C@@H]3C(=O)O)c2c1 (stereo partly drawn) [Example 42, (3R,4R)-4-[3-hydroxy-3-(6-methoxyquinolin-4-yl)propyl]-1-(3-methyl-3-phenylcyclobutyl)piperidine-3-carboxylic acid] | > 64 | 32 (≈ 65.5 µM) | 32 (≈ 65.5 µM) | > 64 | > 64 | – | – | – | – | –
17 | COc1ccc2nccc(C(O)CC[C@@H]3CCN(C4CN(C5CCCC5)C4)C[C@@H]3C(=O)O)c2c1 (stereo partly drawn) [Example 132, (3R,4R)-1-(1-cyclopentylazetidin-3-yl)-4-[3-hydroxy-3-(6-methoxyquinolin-4-yl)propyl]piperidine-3-carboxylic acid] | > 64 | > 64 | > 64 | > 64 | > 64 | – | – | – | – | –
18 | COc1ccc2nccc(C(O)CC[C@@H]3CCN(C4CC(O)(c5ccccc5)C4)C[C@@H]3C(=O)O)c2c1 (stereo partly drawn) [Example 94, (3R,4R)-4-[3-hydroxy-3-(6-methoxyquinolin-4-yl)propyl]-1-(3-hydroxy-3-phenylcyclobutyl)piperidine-3-carboxcylic acid] | – | – | – | – | – | 32 µg/mL (≈ 65.2 µM) | >64 µg/mL | >64 | >64 | >64 µg/mL
19 | COc1ccc2ncc(F)c(C(O)CC[C@@H]3CCN(C4CC(c5c(F)cccc5F)C4)C[C@@H]3C(=O)O)c2c1 (stereo partly drawn) [Example 17, (3R,4R)-1-[3-(2,6-difluorophenyl)cyclobutyl]-4-[3-(3-fluoro-6-methoxyquinolin-4-yl)-3-hydroxypropyl]piperidine-3-carboxylic acid] | ≤ 0.0625 | ≤ 0.0625 | 0.5 (≈ 0.946 µM) | ≤ 0.0625 | ≤ 0.0625 | – | – | – | – | –
